Literature values as cited in patent US20080206348A1, “Cilostazol-Containing Pharmaceutical Composition Based On Particles Of Less Than 50 Micrometers” (priority 2004, published 2008).

Solubility in water: practically insoluble
SMILES: O=C1CCc2cc(OCCCCc3nnnn3C3CCCCC3)ccc2N1 [Cilostazol]
